What all share (assay type): cell-based
Assay [1] has as its system Enterococcus, Resistant (4-6 isolates). The assay can be described thus: Enterococcus screen, broth micro-dilution MIC, resistant isolates. Also noted: unit not given here. The settings on record: mean of 4-6 isolates. As for the experimental part: (§1) The antibacterial efficacy of the present compounds is illustrated in TABLE 2. The minimal inhibitory concentrations (MICs) were determined using a standard broth micro-dilution assay.
(Dilution methods test growth across graded concentrations, often in twofold steps.)

The test system of assay [2] is Enterococcus, Sensitive (4-6 isolates). The assay can be described thus: Enterococcus screen, broth micro-dilution MIC, sensitive isolates. Also noted: unit not given here. The settings on record: mean of 4-6 isolates. Here is the method:
as §1

The subject of assay [3] is Staphylococcus aureus 446. The assay can be described thus: Broth micro-dilution MIC, SA 446. The conditions noted are these: unit assumed. Here is the method:
as §1

Assay [4] relates to Staphylococcus aureus 489. Kind of assay: Broth micro-dilution MIC, SA 489. The settings on record: unit assumed. Here is the method: as §1
The test system of assay [5] is Staphylococcus aureus 447. The assay can be described thus: Broth micro-dilution MIC, SA 447. The settings on record: unit assumed. Here is the method: as §1
In assay [6] the test system is Staphylococcus haemolyticus 105. The assay can be described thus: Broth micro-dilution MIC, SH 105. The conditions noted are these: unit assumed. Here is the method: as §1
The subject of assay [7] is Staphylococcus haemolyticus 415. Kind of assay: Broth micro-dilution MIC, SH 415. The settings on record: unit assumed. As for the experimental part: as §1
The subject of assay [8] is Staphylococcus epidermis 270. Kind of assay: Broth micro-dilution MIC, SE 270. The settings on record: unit assumed. Here is the method:
as §1

Assay [9] concerns Streptococcus pneumoniae P1. The assay can be described thus: Broth micro-dilution MIC, S PN P1. The conditions noted are these: unit assumed. As for the experimental part:
as §1

Assay [10] deals with Streptococcus pyogenes 203. The assay can be described thus: Broth micro-dilution MIC, S PY 203. The settings on record: unit assumed. As for the experimental part:
as §1

The source of these data is patent US5919756A, “Amides” (Eli Lilly and Company, priority 1997, dated 1999).

Values after ≈ are worked out from the molar mass of the structure shown.

In the case of `CNC(CC(C)C)C(=O)NC1C(=O)NC(CC(N)=O)C(=O)NC2C(=O)NC3C(=O)NC(C(=O)NC(C(=O)NCc4ccccc4)c4cc(O)cc(O)c4-c4cc3ccc4O)C(OC3CC(C)(N)C(O)C(C)O3)c3ccc(c(Cl)c3)Oc3cc2cc(c3OC2OC(CO)C(O)C(O)C2OC2CC(C)(NCc3ccc(-c4ccccc4)cc3)C(O)C(C)O2)Oc2ccc(cc2Cl)C1O` (stereo not shown) [Example 10, N^4-(4-phenylbenzyl)A82846B, benzylamide], in [1], the “Minimum Inhibitory Concentrations (MICs), Mean Values of 4-6 Isolates, Resistant” value (from here on “Minimum Inhibitory Concentrations … Resistant”) worked out at 0.84. Moreover, the “Minimum Inhibitory Concentrations (MICs), Mean Values of 4-6 Isolates, Sensitive” value (“Minimum Inhibitory Concentrations … Sensitive” below) in [2] was 0.14. In assay [3], this compound showed an MIC, SA 446 of 1 mg/L (≈ 0.541 µM). In [4], this compound showed an MIC, SA 489 of 4 mg/L (≈ 2.16 µM). This compound also displayed an MIC, SA 447 in [5] of 2 mg/L (≈ 1.08 µM). The compound also returned an MIC, SH105 in assay [6] of 0.5 mg/L (≈ 0.271 µM). The compound also had an MIC, SH415 in assay [7] of 4 mg/L (≈ 2.16 µM). Also, the MIC, SE270 in [8] is 0.5 mg/L (≈ 0.271 µM). The MIC, S PN P1 in assay [9] was not above 0.06 mg/L. The MIC, S PY 203 in [10] is not above 0.06 mg/L.

Turning to `CNC(CC(C)C)C(=O)NC1C(=O)NC(CC(N)=O)C(=O)NC2C(=O)NC3C(=O)NC(C(=O)NC(C(=O)NCc4ccccc4)c4cc(O)cc(O)c4-c4cc3ccc4O)C(OC3CC(C)(N)C(O)C(C)O3)c3ccc(c(Cl)c3)Oc3cc2cc(c3OC2OC(CO)C(O)C(O)C2OC2CC(C)(NCc3ccc(-c4ccccc4)cc3)C(O)C(C)O2)Oc2ccc(cc2Cl)C1O.Cl` (stereo not shown) [Example 11, N^4-(4-phenylbenzyl)A82846B, benzylamide, HCl salt], in assay [1], the “Minimum Inhibitory Concentrations … Resistant” value came out at 1. Further, the “Minimum Inhibitory Concentrations … Sensitive” value in [2] stood at 0.11. This compound yielded an MIC, SA 446 in assay [3] of 4 mg/L. In assay [4], this compound returned an MIC, SA 489 of 1 mg/L. The same compound returned an MIC, SA 447 in assay [5] of 1 mg/L. The MIC, SH105 in [6] came out at 1 mg/L. The compound further gave an MIC, SH415 in assay [7] of 1 mg/L. In assay [8], this compound yielded an MIC, SE270 of 1 mg/L. In [9], this compound gave an MIC, S PN P1 not above 0.06 mg/L. The MIC, S PY 203 in [10] was not above 0.06 mg/L.

Regarding `CNC(CC(C)C)C(=O)NC1C(=O)NC(CC(N)=O)C(=O)NC2C(=O)NC3C(=O)NC(C(=O)NC(C(=O)NCc4ccc(OC)cc4)c4cc(O)cc(O)c4-c4cc3ccc4O)C(OC3CC(C)(N)C(O)C(C)O3)c3ccc(c(Cl)c3)Oc3cc2cc(c3OC2OC(CO)C(O)C(O)C2OC2CC(C)(NCc3ccc(-c4ccccc4)cc3)C(O)C(C)O2)Oc2ccc(cc2Cl)C1O.O=C(O)C(F)(F)F` (stereo not shown) [Example 12, N^4-(4-phenylbenzyl)A82846B, (4-methoxybenzyl) amide, trifluoroacetate salt], the “Minimum Inhibitory Concentrations … Resistant” value in assay [1] was found to be 1.7. For the same compound, in assay [2], the “Minimum Inhibitory Concentrations … Sensitive” value came out at 0.13. The MIC, SA 446 in assay [3] was 2 mg/L. The compound further had an MIC, SA 489 in [4] of 0.5 mg/L. In assay [5], this compound gave an MIC, SA 447 of 1 mg/L. For the same compound, the MIC, SH105 in [6] came out at 1 mg/L. Also, the MIC, SH415 in [7] is 4 mg/L. The same compound returned an MIC, SE270 in assay [8] of 2 mg/L. The MIC, S PN P1 in assay [9] was not above 0.06 mg/L. The compound further registered an MIC, S PY 203 in assay [10] not above 0.06 mg/L.

Take `CNC(CC(C)C)C(=O)NC1C(=O)NC(CC(N)=O)C(=O)NC2C(=O)NC3C(=O)NC(C(=O)NC(C(=O)NCCc4ccccc4)c4cc(O)cc(O)c4-c4cc3ccc4O)C(OC3CC(C)(N)C(O)C(C)O3)c3ccc(c(Cl)c3)Oc3cc2cc(c3OC2OC(CO)C(O)C(O)C2OC2CC(C)(N)C(O)C(C)O2)Oc2ccc(cc2Cl)C1O.O=C(O)C(F)(F)F` (stereo not shown) [Example 16, A82846B, phenethylamide, trifluoroacetate salt]: in assay [1], the “Minimum Inhibitory Concentrations … Resistant” value amounted to 16. The “Minimum Inhibitory Concentrations … Sensitive” value in [2] worked out at 0.25. For the same compound, in assay [3], the MIC, SA 446 is 0.125 mg/L. Also, the MIC, SA 489 in assay [4] was not above 0.06 mg/L. Further, in [5], the MIC, SA 447 is not above 0.06 mg/L. In assay [6], the MIC, SH105 is not above 0.06 mg/L. Further, the MIC, SH415 in assay [7] was found to be 0.125 mg/L. This compound showed an MIC, SE270 in [8] not above 0.06 mg/L. Moreover, the MIC, S PN P1 in assay [9] is not above 0.06 mg/L.

As to `CNC(CC(C)C)C(=O)NC1C(=O)NC(CC(N)=O)C(=O)NC2C(=O)NC3C(=O)NC(C(=O)NC(C(=O)NCCc4ccccc4)c4cc(O)cc(O)c4-c4cc3ccc4O)C(OC3CC(C)(N)C(O)C(C)O3)c3ccc(c(Cl)c3)Oc3cc2cc(c3OC2OC(CO)C(O)C(O)C2OC2CC(C)(NCc3ccc(-c4ccccc4)cc3)C(O)C(C)O2)Oc2ccc(cc2Cl)C1O` (stereo not shown) [Example 17, N^4-(4-phenylbenzyl)A82846B, phenethylamide], the “Minimum Inhibitory Concentrations … Resistant” value in [1] came to 1.4. Moreover, the “Minimum Inhibitory Concentrations … Sensitive” value in assay [2] is given as 0.25.

For the compound “N^4 -(4-(4-CHLOROPHENYL)BENZYL)A82846B, 5-(TERT-BUTOXYCARBONYLAMINO)PENTYLAMIDE, TRIS(TRIFLUOROACETATE) SALT [Example 25]”, the “Minimum Inhibitory Concentrations … Resistant” value in assay [1] is given as 2.8. In addition, in assay [2], the “Minimum Inhibitory Concentrations … Sensitive” value worked out at 5.0.

“N^4 -(4-(4-CHLOROPHENYL)BENZYL)A82846B, 5-AMINOPENTYLAMIDE, TETRA(TRIFLUOROACETATE) SALT [Example 26]”: the “Minimum Inhibitory Concentrations … Resistant” value in assay [1] is on record as 1.7. Further, the “Minimum Inhibitory Concentrations … Sensitive” value in assay [2] came to 0.44. In assay [4], this compound showed an MIC, SA 489 of 2 mg/L. The MIC, SA 447 in [5] was 1 mg/L. This compound returned an MIC, SH105 in assay [6] of 0.5 mg/L. Moreover, the MIC, SH415 in [7] came to 2 mg/L. Moreover, the MIC, SE270 in assay [8] stood at 1 mg/L. In [9], this compound showed an MIC, S PN P1 of 0.25 mg/L. In assay [10], this compound yielded an MIC, S PY 203 of 0.25 mg/L.

Take “N^4 -(4-phenoxybenzyl)A82846B, n-octylamide, trifluoroacetate salt [Example 6]”: in assay [1], the “Minimum Inhibitory Concentrations … Resistant” value is on record as 1.7. For the same compound, the “Minimum Inhibitory Concentrations … Sensitive” value in assay [2] was found to be 0.44. In assay [3], this compound came in with an MIC, SA 446 of 4 mg/L. Further, the MIC, SA 489 in assay [4] was determined as 2 mg/L. Besides, the MIC, SA 447 in assay [5] came out at 1 mg/L. For the same compound, in [6], the MIC, SH105 came out at 1 mg/L. Besides, the MIC, SH415 in assay [7] worked out at 4 mg/L. In [8], this compound returned an MIC, SE270 of 1 mg/L. Besides, in [10], the MIC, S PY 203 was not above 0.06 mg/L.

For “N^4 -(4-phenoxybenzyl)A82846B, tert-butylamide, trifluoroacetate salt [Example 5]”, the “Minimum Inhibitory Concentrations … Resistant” value in [1] turned out to be 4. For the same compound, in assay [2], the “Minimum Inhibitory Concentrations … Sensitive” value is 0.22. Also, in assay [3], the MIC, SA 446 was found to be 8 mg/L. This compound registered an MIC, SA 489 in assay [4] of 2 mg/L. This compound also showed an MIC, SA 447 in assay [5] of 2 mg/L. In [6], this compound yielded an MIC, SH105 of 4 mg/L. The compound further returned an MIC, SH415 in assay [7] of 2 mg/L. The compound also came in with an MIC, SE270 in assay [8] of 4 mg/L. In assay [10], this compound gave an MIC, S PY 203 not above 0.06 mg/L.

For “N^4 -(4-phenylbenzyl)A82846B, tert-butylamide, trifluoroacetate salt [Example 4]”, the “Minimum Inhibitory Concentrations … Resistant” value in assay [1] came out at 2. Further, in [2], the “Minimum Inhibitory Concentrations … Sensitive” value is 0.082. This compound also showed an MIC, SA 446 in [3] of 2 mg/L. Also, the MIC, SA 447 in assay [5] was 0.5 mg/L. In addition, the MIC, SH105 in assay [6] turned out to be 1 mg/L. Further, the MIC, SH415 in assay [7] is 2 mg/L. For the same compound, the MIC, SE270 in [8] was 0.125 mg/L. In assay [9], this compound had an MIC, S PN P1 not above 0.06 mg/L. The compound further gave an MIC, S PY 203 in assay [10] not above 0.06 mg/L.
